The values that follow come from ChEMBL document CHEMBL3507680, “University of Dundee, Gates Library screen for HepG2 cell viability”.

The structures appear in SMILES notation.

This data set can be described thus: Human HepG2 cell viability assay in 384 well format. It is filed as toxicity, cell-based. Conditions: HepG2 cells, read-out: Inhibition. Also on record: dose 125 nL, time 70.5 hour; concentration not given beside the values.

With `Cc1ccc(N2CCOCC3(CCCN(c4ncc(F)cn4)C3)C2)nn1` (stereo not given), the cytotoxicity at 70.5 h is -3.89%. In the case of `Cc1cnc(N2CCCC3(COCCN(c4ccc(C)nn4)C3)C2)nc1` (stereo not given) it was -2.56%; in that of `CN(C)c1nccc(N2CCO[C@H]3CN(Cc4ccco4)C[C@H]32)n1`, 3.82%; in that of `O=c1cc(CN2CCCC2)nc2n1CCCN(Cc1ccoc1)C2`, 1.82%. The result for `Cc1noc([C@@H]2C[C@H]3OCC[C@H]3N(S(=O)(=O)c3ccccc3)C2)n1` reads -1.71%; that for `CN1C(=O)CC[C@@H]2[C@H]1CCN2S(=O)(=O)Cc1ccccc1`, 47.7%. In the case of `CS(=O)(=O)N1CC[C@@H]2O[C@@H](COCC(=O)N3CCCC3)CC[C@@H]21` it was 22.1%; in that of `COc1cc(N2C[C@H](C(=O)NC3CC3)[C@@H]3CCO[C@@H]3C2)ncn1`, -7.61%. `Cn1cc(CN2CCC3(CCCN(C(=O)c4cscn4)C3)C2)cn1` (stereo not given): the cytotoxicity at 70.5 h was -3.85%.

As to `COCCN1C(=O)C[C@H]2[C@H]1CCN2C(=O)c1ccc[nH]1`, the cytotoxicity at 70.5 h is -10.2%. In the case of `Cc1nc(CO[C@@H]2CN(Cc3ccco3)[C@@H]3COC[C@@H]32)cs1` it was -14.3%. The result for `Cn1ncc2c1C(COCC1CC1)CN(Cc1ccncc1)C2` (stereo not given) reads -8.73%; that for `N#Cc1ccc(OC[C@]23COC[C@H]2CN(Cc2ccoc2)C3)nc1`, 0.658%. Take `Cn1cc(N2CCC3(CCN(C(=O)[C@H]4CCCO4)C3)C2=O)cn1` (stereo not given in full): the cytotoxicity at 70.5 h is -7.22%. In the case of `COC[C@@]12CCO[C@@H]1CCN(C(=O)COc1ccc(C)cc1)C2` it was -2.71%; in that of `Cc1occc1C(=O)N1C[C@@H]2CCCO[C@@H]2[C@H](N(C)Cc2ccco2)C1`, -0.88%; in that of `O=C(c1cocn1)N1CCC[C@]2(C[C@@H](Oc3ncccc3F)CO2)C1`, -5.09%. Take `Cc1c(S(=O)(=O)NCC(C)C)cnn1C`: the cytotoxicity at 70.5 h was -14.3%. As for `Cc1c(Cn2cc(Cl)c(N)n2)cnn1C`, the cytotoxicity at 70.5 h was -13.5%. In the case of `CCn1ncc(Cn2cc(Cl)c(N)n2)c1C` it was 19.5%; in that of `CC(C(=O)O)n1nc(C(F)(F)F)c(Br)c1C1CC1` (stereo not given), -14%; in that of `O=C(O)C1CCCN1c1nc(C2CC2)cc(C(F)(F)F)n1` (stereo not given), 2.63%.

For the compound `O=C(O)C1CCCN1c1nc(-c2ccc(Cl)cc2)cc(C(F)(F)F)n1` (stereo not given), the cytotoxicity at 70.5 h was -3.11%.

Consider `COC(=O)c1ccc(OC)c(Cn2cc(N)cn2)c1`, for which the cytotoxicity at 70.5 h is -19.2%. In the case of `CCn1cc(-c2cc(C(F)(F)F)nn2CCC#N)cn1` it was -9.49%. The result for `Cn1cc(-c2cc(C(F)(F)F)nn2CCC#N)cn1` reads 11.5%. The result for `CCCn1nc(C)c2c(C(F)F)cc(=O)n(CC(=O)O)c21` reads -8.97%. As for `COCC(=O)N1CCCn2c(CN3CCOCC3)nnc2C1`, the cytotoxicity at 70.5 h amounted to 2.56%.

Turning to `N#Cc1cccc(CN2Cc3nccn3CC(COCC3CC3)C2)c1` (stereo not given), the cytotoxicity at 70.5 h came out at 8.65%. In the case of `CC(C)N(C)Cc1cn2c(n1)CN(C(=O)Cc1ccccc1)CC2` it was -2.24%; in that of `c1ccc(N2CCC3(CCCN(c4ncccn4)C3)C2)nc1` (stereo not given), 2.93%.

For the compound `Cc1ccc(C(=O)N2CCC3(CCN3c3ncccn3)C2)cn1` (stereo not given), the cytotoxicity at 70.5 h is -1.31%. The result for `O=C(C[C@@H]1COC[C@H]2CN(C(=O)c3cccnc3)C[C@@H]12)N1CCCC1` reads 1.64%; that for `CC1N(C)C(=O)COC12CCN(Cc1nccs1)CC2` (stereo not given), -9.04%; that for `Cn1cccc1C(=O)N1C[C@@H]2C[C@@H](c3nc(C4CC4)cs3)O[C@@H]2C1`, 4.85%. The result for `O=C(c1cscn1)N1CCC2(CN(Cc3ccsc3)C2)C1` reads 31.3%; that for `Cn1cc(CN2C[C@H]3CCN(C(=O)c4cscn4)C[C@H]3C2)cn1`, 27.4%; that for `Cc1nnc([C@H]2C[C@@H]3CCN(Cc4ccc(C)o4)C[C@H]3O2)[nH]1`, -7.28%. The result for `Cc1ccc(CN2CCc3c(COC(C)C)nn(C)c3C2)s1` reads -9.08%. Consider `Cn1cc(CN2CCC3(CC2)CCN(C(=O)c2cscn2)CC3)cn1`, for which the cytotoxicity at 70.5 h is -1.71%. In the case of `COCc1nn(C(C)C)c2c1CCN(Cc1ccc(C)o1)C2` it was -4.09%; in that of `O=C(COCC1CC[C@H]2[C@H](CCN2c2ncccn2)O1)N1CCCC1` (stereo not given in full), -6%; in that of `COCCNC(=O)[C@H]1CN(Cc2sccc2C)C[C@H]2OCC[C@@H]12`, 7.63%. In the case of `COCCNC(=O)[C@@H]1CN(Cc2sccc2C)C[C@H]2OCC[C@H]21` it was -2.35%; in that of `Cc1ccc(CN2Cc3c(C(=O)N4CCOCC4)nn(C)c3C2)s1`, -2.1%. The result for `O=C(c1ccccc1)N1CCC[C@]2(C[C@@H](Oc3ncccc3F)CO2)C1` reads 23.2%; that for `O=C(c1cccs1)N1C[C@@H]2OCCN(CC3CCCO3)[C@@H]2C1` (stereo not given in full), 1.09%. On to `Cc1nnc(N2CCCC3(CN(Cc4ccc(F)cc4)CCO3)C2)o1` (stereo not given), for which the cytotoxicity at 70.5 h is -1.36%. In the case of `O=C(c1cnoc1)N1CCC[C@]2(C[C@@H](Oc3ccccn3)CO2)C1` it was -6.93%. Turning to `CN(Cc1ccco1)[C@@H]1CN(C(=O)C2CCOCC2)C[C@@H]2CCCO[C@@H]21`, the cytotoxicity at 70.5 h came to 0.92%. Regarding `c1cc(-c2ccc3nc(C4CCN(CC5CC5)CC4)nn3c2)cs1`, the cytotoxicity at 70.5 h is -8.2%. In the case of `O=C(C1CCOCC1)N1CCO[C@H]2[C@H](Oc3cccnc3)CC[C@@H]21` it was -3.29%; in that of `O=C(Cc1cccs1)N1C[C@H]2CN(CC3CCCO3)CC[C@H]2C1` (stereo not given in full), -6.25%; in that of `O=C(C[C@@H]1COC[C@H]2CN(Cc3cccnc3)C[C@@H]12)N1CCCC1`, -4.76%. For the compound `O=C1COC2(CCN(Cc3ccncc3)CC2)CN1c1ccccc1`, the cytotoxicity at 70.5 h turned out to be 2.43%. The result for `Cn1ncc2c1CN(Cc1ccc(F)cc1)CC2COCC1CC1` (stereo not given) reads 31.5%; that for `Cn1ncc2c1CN(Cc1ccccc1F)CC2COCC1CC1` (stereo not given), 23.7%. The result for `COCCN1C[C@H](OCc2csc(C)n2)[C@H]2COC[C@H]21` reads -9.78%; that for `CN(C)C(=O)c1nn(C)c2c1CN(Cc1cccs1)C2`, -9.29%; that for `COCCNC(=O)[C@H]1CN(Cc2csc(C)n2)C[C@H]2OCC[C@@H]12`, -3.29%. The result for `Cn1cc(CN2CCCC23CCN(Cc2nccn2C)CC3)cn1` reads 3.37%.

For the compound `CN1CC(=O)N(c2ccsc2)CC12CCN(Cc1cnn(C)c1)C2` (stereo not given), the cytotoxicity at 70.5 h was -0.306%. In the case of `COCCN1C[C@@H]2[C@@H](OC)CCN(Cc3ccsc3)[C@@H]2C1` it was -2.68%. `CN1CC(=O)N(c2cnn(C)c2)CC12CCN(Cc1cccnc1)C2` (stereo not given): the cytotoxicity at 70.5 h was determined as 0.303%. The result for `CO[C@@H]1CCN(Cc2cccc(C)n2)[C@@H]2CN(Cc3ccncc3)C[C@@H]21` reads -1.88%.
